Test results from US20250084084A1, “Crystalline form of (2R)-2-(5-fluoro-2-methoxypyridin-4-yl)-1-[(2S)-7-methyl-6-(pyrimidin-2-yl)-3,4-dihydro-1H-spiro[1,8-naphthyridine-2,3-pyrrolidin]-1-yl]propan-1-one” (Pfizer Inc., priority 2020, published 2025).

Biological target: α-melanocyte-stimulating hormone receptor (hMC4R) (Homo sapiens (Human), UniProt P32245)
Test: In vitro binding affinity assay using hMC4R (radioligand competition binding, [125I]-(Nle4, D-Phe7)-α-MSH)
Conditions: geometric mean, read-out: Ki (nM) geometric
Description: The binding affinity of test compounds at the α-melanocyte-stimulating hormone receptor (hMC4R) was assessed using a radioligand competition binding assay. Recombinant Chinese hamster ovaries (CHO) cells stably expressing hMC4R (PerkinElmer #ES-191-C) were used for competitive binding. hMC4R membranes were grown in Dulbecco's Modified Essential Medium and Ham's F-12 Medium (DMEM/F12), 10% heat inactivated fetal bovine serum (FBS), 0.4 mg/mL Geneticin and 2 mM L-glutamine. Cell membranes were bulked and frozen until the assay was performed.
Compounds were solubilized in 100% dimethyl sulfoxide (DMSO) to a concentration of 30 mM. A 10-point intermediate dilution series using half log dilutions was created in 100% DMSO with a top concentration of 0.03 mM. The serially diluted compounds were spotted as 1 μL/well, in 96-well Costar 3363 plates. The final compound range in the assay was 300 nM to 0.01 nM with a final DMSO concentration of 1%. Control wells, containing 1 μL of 2 mM ([…]) alpha-melanocyte stimulating hormone (α-MSH-Tocris #2584) was added to the non-specific binding wells and 1 μL 100% DMSO for the total binding control wells. […] The exact concentration of radioligand used for each experiment was determined by liquid scintillation counting and adjusted if necessary.
Frozen hMC4R cell membranes were thawed and Dounce homogenized. Homogenates were resuspended in assay buffer to a concentration of 2 μg per well. […] The plates were incubated for 2 hours at room temperature. Assay samples were then rapidly filtered through Unifilter-96 GF/B PEI coated filter plates using a filter plate harvester (PerkinElmer) and rinsed with ice-cold wash buffer [25 mM (4-(2-hydroxyethyl)-1-piperazineethanesulfonic acid (HEPES), 1 mM MgCl2, 2.5 mM CaCl2, and 500 mM NaCl]. Filter plates were dried overnight at room temperature. Plates were then bottom-sealed prior to the addition of 50 μL/well Ultima Gold XR scintillation fluid (PerkinElmer 6013111). Plates were then top-sealed, incubated for 60 minutes at room temperature and then the amount of radioactivity present was determined by liquid scintillation counting on a Microbeta Trilux (PerkinElmer #2450-0060).
The raw data (expressed as counts per minute) were analyzed using ActivityBase (IDBS Data Management Software). […] Equilibrium dissociation constant for inhibitor of ligand and receptor interaction (Ki) values were then calculated from the IC50 values using the Cheng-Prusoff equation: Ki=IC50/(1+([L]/Kd)), where [L] is the concentration of the radioligand used in the experiment and Kd is the affinity of the radioligand (determined in separate saturation experiments).

Chain of α-melanocyte-stimulating hormone receptor (hMC4R) (P32245 whole entry): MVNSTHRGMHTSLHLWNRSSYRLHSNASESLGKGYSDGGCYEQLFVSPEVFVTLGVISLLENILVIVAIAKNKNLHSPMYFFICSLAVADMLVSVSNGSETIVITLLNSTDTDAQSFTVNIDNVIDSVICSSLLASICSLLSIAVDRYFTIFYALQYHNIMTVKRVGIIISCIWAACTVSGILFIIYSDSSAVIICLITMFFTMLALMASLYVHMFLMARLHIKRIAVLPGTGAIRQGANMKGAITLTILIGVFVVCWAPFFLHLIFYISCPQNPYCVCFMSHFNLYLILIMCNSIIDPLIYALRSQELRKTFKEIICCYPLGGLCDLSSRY

| Ki [nM] | Compound |
| --- | --- |
| 0.83 | COc1cc([C@@H](C)C(=O)N2CC[C@@]3(CCc4cc(-c5cnn(C)n5)c(C)nc4N3)C2)c(F)cn1 [Example 118, (2R)-2-(5-fluoro-2-methoxypyridin-4-yl)-1-[(2S)-7-methyl-6-(2-methyl-2H-1,2,3-triazol-4-yl)-3,4-dihydro-1H-spiro[1,8-naphthyridine-2,3′-pyrrolidin]-1′-yl]propan-1-one] |
| > 17 | COc1cc([C@@H](C)C(=O)N2CC[C@@]3(CCc4cc(-c5cnn(C)n5)c(C)nc4N3)C2)c(Cl)cn1 [Example 119, (2R)-2-(5-chloro-2-methoxypyridin-4-yl)-1-[(2S)-7-methyl-6-(2-methyl-2H-1,2,3-triazol-4-yl)-3,4-dihydro-1H-spiro[1,8-naphthyridine-2,3′-pyrrolidin]-1′-yl]propan-1-one] |
| 0.4 | COc1cc([C@@H](C)C(=O)N2CC[C@@]3(CCc4cc(-c5nc(C(F)F)n(C)n5)c(C)nc4N3)C2)c(Cl)cn1 [Example 120, (2R)-2-(5-chloro-2-methoxypyridin-4-yl)-1-{(2S)-6-[5-(difluoromethyl)-1-methyl-1H-1,2,4-triazol-3-yl]-7-methyl-3,4-dihydro-1H-spiro[1,8-naphthyridine-2,3′-pyrrolidin]-1′-yl}propan-1-one] |
| 0.49 | Cc1nc2c(cc1-c1nc(C(F)F)n(C)n1)CC[C@@]1(CCN(C(=O)Cc3ccc(F)c(F)c3)C1)N2 [Example 121, 1-{(2S)-6-[5-(difluoromethyl)-1-methyl-1H-1,2,4-triazol-3-yl]-7-methyl-3,4-dihydro-1H-spiro[1,8-naphthyridine-2,3′-pyrrolidin]-1′-yl}-2-(3,4-difluorophenyl)ethan-1-one] |
| 0.49 | COc1cc([C@@H](C)C(=O)N2CC[C@@]3(CCc4cc(-c5nc(C(F)F)n(C)n5)c(C)nc4N3)C2)c(F)cn1 [Example 122, (2R)-1-{(2S)-6-[5-(difluoromethyl)-1-methyl-1H-1,2,4-triazol-3-yl]-7-methyl-3,4-dihydro-1H-spiro[1,8-naphthyridine-2,3′-pyrrolidin]-1′-yl}-2-(5-fluoro-2-methoxypyridin-4-yl)propan-1-one] |

| Compound | Ki [nM] |
| --- | --- |
| COc1cc([C@@H](C)C(=O)N2CC[C@]3(CCc4cc(-c5nnn(C)n5)c(C)nc4N3)C2)c(F)cn1 [Example 116, (2R)-2-(5-fluoro-2-methoxypyridin-4-yl)-1-[(2R)-7-methyl-6-(2-methyl-2H-tetrazol-5-yl)-3,4-dihydro-1H-spiro[1,8-naphthyridine-2,3′-pyrrolidin]-1′-yl]propan-1-one] | 7.1 |

Same assay, conditions: geometric mean, read-out: Ki (nM) geometric mean

| Ki [nM] | Compound |
| --- | --- |
| 2.2 | COc1cc([C@@H](C)C(=O)N2CC[C@@]3(CCc4cc(-c5ncc(C(F)F)cn5)c(C)nc4N3)C2)c(F)cn1 [Example 21, (2R)-1-{(2S)-6-[5-(difluoromethyl)pyrimidin-2-yl]-7-methyl-3,4-dihydro-1H-spiro[1,8-naphthyridine-2,3′-pyrrolidin]-1′-yl}-2-(5-fluoro-2-methoxypyridin-4-yl)propan-1-one] |
| 2 | COc1cc([C@@H](C)C(=O)N2CC[C@@]3(CCc4cc(-c5ncc(Br)cn5)c(C)nc4N3)C2)c(F)cn1 [Example 22, (2R)-1-[(2S)-6-(5-bromopyrimidin-2-yl)-7-methyl-3,4-dihydro-1H-spiro[1,8-naphthyridine-2,3′-pyrrolidin]-1′-yl]-2-(5-fluoro-2-methoxypyridin-4-yl)propan-1-one] |
| 2 | COc1cc([C@@H](C)C(=O)N2CC[C@@]3(CCc4cc(-c5cn(C(F)(F)F)c(C)n5)c(C)nc4N3)C2)c(F)cn1 [Example 27, (2R)-2-(5-fluoro-2-methoxypyridin-4-yl)-1-{(2S)-7-methyl-6-[2-methyl-1-(trifluoromethyl)-1H-imidazol-4-yl]-3,4-dihydro-1H-spiro[1,8-naphthyridine-2,3′-pyrrolidin]-1′-yl}propan-1-one] |
| 0.93 | Cc1nc2c(cc1-c1ncccn1)CC[C@@]1(CCN(C(=O)Cc3cc(F)c(F)c(F)c3)C1)N2 [Example 54, 1-[(2S)-7-methyl-6-(pyrimidin-2-yl)-3,4-dihydro-1H-spiro[1,8-naphthyridine-2,3′-pyrrolidin]-1′-yl]-2-(3,4,5-trifluorophenyl)ethan-1-one] |
| 2.5 | COc1cnc(-c2cc3c(nc2C)N[C@@]2(CC3)CCN(C(=O)[C@H](C)c3cc(OC)ncc3F)C2)nc1 [Example 67, (2R)-2-(5-fluoro-2-methoxypyridin-4-yl)-1-[(2S)-6-(5-methoxypyrimidin-2-yl)-7-methyl-3,4-dihydro-1H-spiro[1,8-naphthyridine-2,3′-pyrrolidin]-1′-yl]propan-1-one] |
| 35 | COc1cc([C@@H](C)C(=O)N2CC[C@@]3(CCc4cc(-c5ncc(C(F)(F)F)cc5F)c(C)nc4N3)C2)c(F)cn1 [Example 68, (2R)-2-(5-fluoro-2-methoxypyridin-4-yl)-1-{(2S)-6-[3-fluoro-5-(trifluoromethyl)pyridin-2-yl]-7-methyl-3,4-dihydro-1H-spiro[1,8-naphthyridine-2,3′-pyrrolidin]-1′-yl}propan-1-one] |
| 5.1 | COc1cc([C@@H](C)C(=O)N2CC[C@@]3(CCc4cc(-c5nc(C(F)(F)F)ccc5F)c(C)nc4N3)C2)c(F)cn1 [Example 69, (2R)-2-(5-fluoro-2-methoxypyridin-4-yl)-1-{(2S)-6-[3-fluoro-6-(trifluoromethyl)pyridin-2-yl]-7-methyl-3,4-dihydro-1H-spiro[1,8-naphthyridine-2,3′-pyrrolidin]-1′-yl}propan-1-one] |
| 40 | COc1cc([C@@H](C)C(=O)N2CC[C@@]3(CCc4cc(-c5cnc(C6CC6)cn5)c(C)nc4N3)C2)c(F)cn1 [Example 70, (2R)-1-[(2S)-6-(5-cyclopropylpyrazin-2-yl)-7-methyl-3,4-dihydro-1H-spiro[1,8-naphthyridine-2,3′-pyrrolidin]-1′-yl]-2-(5-fluoro-2-methoxypyridin-4-yl)propan-1-one] |
| 3.3 | COc1cc([C@@H](C)C(=O)N2CC[C@@]3(CCc4cc(-c5cc(C(F)(F)F)ncn5)c(C)nc4N3)C2)c(F)cn1 [Example 72, (2R)-2-(5-fluoro-2-methoxypyridin-4-yl)-1-{(2S)-7-methyl-6-[6-(trifluoromethyl)pyrimidin-4-yl]-3,4-dihydro-1H-spiro[1,8-naphthyridine-2,3′-pyrrolidin]-1′-yl}propan-1-one] |

| Compound | Ki [nM] |
| --- | --- |
| COc1cc([C@@H](C)C(=O)N2CC[C@@]3(CCc4cc(-c5ncccn5)c(C)nc4N3)C2)c(Cl)cn1 [Example 15, (2R)-2-(5-Chloro-2-methoxypyridin-4-yl)-1-[(2S)-7-methyl-6-(pyrimidin-2-yl)-3,4-dihydro-1H-spiro[1,8-naphthyridine-2,3′-pyrrolidin]-1′-yl]propan-1-one] | 0.25 |
| [2H]c1cc([2H])nc(-c2cc3c(nc2C)N[C@@]2(CC3)CCN(C(=O)[C@H](C)c3cc(OC)ncc3F)C2)n1 [Example 18, (2R)-2-(5-Fluoro-2-methoxypyridin-4-yl)-1-{(2S)-7-methyl-6-[(4,6-2H2)pyrimidin-2-yl]-3,4-dihydro-1H-spiro[1,8-naphthyridine-2,3′-pyrrolidin]-1′-yl}propan-1-one] | 0.18 |
| COc1cc([C@H](C)C(=O)N2CC[C@@]3(CCc4cc(-c5ncccn5)c(C)nc4N3)C2)c(F)cn1 [Example 28, (2S)-2-(5-fluoro-2-methoxypyridin-4-yl)-1-[(2S)-7-methyl-6-(pyrimidin-2-yl)-3,4-dihydro-1H-spiro[1,8-naphthyridine-2,3′-pyrrolidin]-1′-yl]propan-1-one] | 160 |
| COc1cc([C@@H](C)C(=O)N2CC[C@]3(CCc4cc(-c5ncccn5)c(C)nc4N3)C2)c(F)cn1 [Example 29, (2R)-2-(5-fluoro-2-methoxypyridin-4-yl)-1-[(2R)-7-methyl-6-(pyrimidin-2-yl)-3,4-dihydro-1H-spiro[1,8-naphthyridine-2,3′-pyrrolidin]-1′-yl]propan-1-one] | 11 |
| COc1cc([C@H](C)C(=O)N2CC[C@]3(CCc4cc(-c5ncccn5)c(C)nc4N3)C2)c(F)cn1 [Example 30, (2S)-2-(5-fluoro-2-methoxypyridin-4-yl)-1-[(2R)-7-methyl-6-(pyrimidin-2-yl)-3,4-dihydro-1H-spiro[1,8-naphthyridine-2,3′-pyrrolidin]-1′-yl]propan-1-one] | > 250 |
| [2H]C([2H])([2H])Oc1cc([C@@H](C)C(=O)N2CC[C@@]3(CCc4cc(-c5ncccn5)c(C)nc4N3)C2)c(F)cn1 [Example 74, (2R)-2-{5-fluoro-2-[(^2H3)methyloxy]pyridin-4-yl}-1-[(2S)-7-methyl-6-(pyrimidin-2-yl)-3,4-dihydro-1H-spiro[1,8-naphthyridine-2,3′-pyrrolidin]-1′-yl]propan-1-one] | 1.3 |
